Measurements as given in PubChem BioAssay AID330 (DTP/NCI, 2004).
“And” between values parts separate entries of the source, which are not always exact repeats. Identical values can stand only once. Inconclusive results and toxic doses are left out. How the source made its calls: active means survival T/C of 150% or more; inactive means T/C below 125% in these data.

System: P388 leukemia ip, CD2F1 mice, survival T/C
Assay: NCI In Vivo Anticancer Drug Screen. Data for tumor model P388 Leukemia (intraperitoneal) in CD2F1 (CDF1) mice
Settings: endpoint: median survival time, higher = longer survival
Procedure, shortened: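 Mice carrying the transplanted tumor received test compound or vehicle. Survival was recorded in each group, and the value is the treated-group measurement divided by that of the vehicle-treated control group.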

[1] = dose: 12.5 mg/kg/injection, schedule: Q01DX009 (ip), vehicle: Klucel (hydroxypropylcellulose) (HPC)
[2] = dose: 25.0 mg/kg/injection, schedule: Q01DX009 (ip), vehicle: Klucel (hydroxypropylcellulose) (HPC)
[3] = dose: 50.0 mg/kg/injection, schedule: Q01DX009 (ip), vehicle: Klucel (hydroxypropylcellulose) (HPC)
[4] = dose: 3.12 mg/kg/injection, schedule: Q01DX009 (ip), vehicle: Klucel (hydroxypropylcellulose) (HPC)
[5] = dose: 100.0 mg/kg/injection, schedule: Q04DX003 (ip), vehicle: saline with Tween-80
[6] = dose: 25.0 mg/kg/injection, schedule: Q01DX009 (ip), vehicle: saline with Tween-80
[7] = dose: 50.0 mg/kg/injection, schedule: Q01DX009 (ip), vehicle: saline with Tween-80
[8] = dose: 50.0 mg/kg/injection, schedule: Q04DX003 (ip), vehicle: saline with Tween-80
[9] = dose: 100.0 mg/kg/injection, schedule: Q01DX009 (ip), vehicle: saline with Tween-80

Measured: T/C

FC(F)(F)c1nnc(-c2ccc3ccccc3c2)nn1
inactive: [1] 104 % of control | [2] 103 % of control | [3] 103 % of control and 122 % of control | dose: 100.0 mg/kg/injection, schedule: Q01DX009 (ip), vehicle: Klucel (hydroxypropylcellulose) (HPC) 105 % of control and 97 % of control | dose: 200.0 mg/kg/injection, schedule: Q01DX009 (ip), vehicle: Klucel (hydroxypropylcellulose) (HPC) 100 % of control

COC(CNC(c1ccccc1)C(O)c1ccccc1)(OC)OC (stereo unspecified)
inactive: dose: 100.0 mg/kg/injection, schedule: Q01DX001 (ip), vehicle: saline with Tween-80 97 % of control | dose: 200.0 mg/kg/injection, schedule: Q01DX001 (ip), vehicle: saline with Tween-80 97 % of control | dose: 400.0 mg/kg/injection, schedule: Q01DX001 (ip), vehicle: saline with Tween-80 97 % of control

CCC[CH2][Sn]([CH2]CCC)([O]C(=O)CCC(C)=O)[O]C(=O)CCC(C)=O
inactive: [4] 118 % of control and 119 % of control
active: [1] 163 % of control

O=[N+]([O-])c1ccc(-c2csc(Nc3ccccn3)n2)o1
inactive: dose: 12.5 mg/kg/injection, schedule: Q01DX005 (ip), vehicle: saline with Tween-80 95 % of control | dose: 25.0 mg/kg/injection, schedule: Q01DX005 (ip), vehicle: saline with Tween-80 99 % of control | dose: 50.0 mg/kg/injection, schedule: Q01DX005 (ip), vehicle: saline with Tween-80 88 % of control and 92 % of control

CN1CC2(C)OC3(CC2(C)N1C)N(C)N(C)CC3(C)O (stereo unspecified)
inactive: dose: 50.0 mg/kg/injection, schedule: Q01DX005 (ip), vehicle: saline 101 % of control | dose: 100.0 mg/kg/injection, schedule: Q01DX005 (ip), vehicle: saline 101 % of control | dose: 200.0 mg/kg/injection, schedule: Q01DX005 (ip), vehicle: saline 101 % of control

Cc1ccc2oc3c(=O)c4ccccc4c(=O)c=3oc2c1
inactive: [5] 90 % of control | dose: 200.0 mg/kg/injection, schedule: Q04DX003 (ip), vehicle: saline with Tween-80 89 % of control | dose: 400.0 mg/kg/injection, schedule: Q04DX003 (ip), vehicle: saline with Tween-80 90 % of control

CC(C)OC(=O)Oc1cccs1
inactive: dose: 12.5 mg/kg/injection, schedule: Q01DX009 (ip), vehicle: saline with Tween-80 100 % of control | [6] 109 % of control | [7] 100 % of control

CCCCCCC(=O)OCCN1CCN(CC/C=C2\c3ccccc3Sc3ccc(C(F)(F)F)cc32)CC1
inactive: dose: 12.5 mg/kg/injection, schedule: Q01DX009 (ip), vehicle: saline 100 % of control and 95 % of control | dose: 12.5 mg/kg/injection, schedule: Q01DX009 (ip), vehicle: suspension in saline 98 % of control | dose: 25.0 mg/kg/injection, schedule: Q01DX009 (ip), vehicle: saline 112 % of control | dose: 25.0 mg/kg/injection, schedule: Q01DX009 (ip), vehicle: suspension in saline 102 % of control and 94 % of control | dose: 50.0 mg/kg/injection, schedule: Q01DX009 (ip), vehicle: saline 106 % of control and 95 % of control | dose: 50.0 mg/kg/injection, schedule: Q01DX009 (ip), vehicle: suspension in saline 100 % of control and 123 % of control and 92 % of control | dose: 100.0 mg/kg/injection, schedule: Q01DX009 (ip), vehicle: saline 99 % of control and 113 % of control | dose: 100.0 mg/kg/injection, schedule: Q01DX009 (ip), vehicle: suspension in saline 107 % of control (2×) and 92 % of control

O=C(O)c1cccc([N+](=O)[O-])c1C(=O)c1ccccc1
inactive: [6] 100 % of control | [7] 95 % of control | [8] 91 % of control | [9] 100 % of control | [5] 95 % of control

C[C@]12CC[C@H](O)C[C@@H]1CC[C@@H]1[C@@H]2C(=O)C[C@]2(C)C3=CC(=O)O[C@H]3C[C@@H]12
inactive: [6] 109 % of control | dose: 25.0 mg/kg/injection, schedule: Q04DX003 (ip), vehicle: saline with Tween-80 117 % of control | [7] 118 % of control | [8] 104 % of control | [9] 86 % of control | [5] 113 % of control and 95 % of control
